Values quoted from earlier work in patent US20100098759A1, “CONTROLLED-RELEASE PREPARATION CONTAINING CILOSTAZOL AND PROCESS FOR THE PREPARATION THEREOF” (AMOREPACIFIC CORPORATION;, priority 2007, published 2010).

water-solubility: ≤ 1 µg/mL
Structure (SMILES): O=C1CCc2cc(OCCCCc3nnnn3C3CCCCC3)ccc2N1 [Cilostazol]
